Experimental data published in article PMC6753678, “Fueling Open Innovation for Malaria Transmission-Blocking Drugs: Hundreds of Molecules Targeting Early Parasite Mosquito Stages” (Frontiers in Microbiology, 2019).

Test system: P. berghei ookinete development
Details: for % inhibition, Replicate A / % inhibition, Replicate B: primary screen at 1 μM; for IC50: read-out: Pb Ookinete development assay IC50, dose response confirmation

Compound	% inhibition, Replicate A [%]	% inhibition, Replicate B [%]	IC50 [µM]
Cc1nc(SCC(=O)N2CCCC2=O)c2c(C)c(C)sc2n1 [TCMDC-123558]	50.04	22.22	
CC(C)Oc1ccc2c(c1)OC(c1ccccc1)(C(F)(F)F)NC2=O (stereo not drawn) [TCMDC-123633]	24.49	54.58	
O=C(Nc1ccccc1O)c1ccc(S(=O)(=O)c2ccc(Cl)cc2)cc1 [TCMDC-123689]	23.88	50.54	
CCCC(=O)Nc1ccc(Cl)c(NC(=O)COc2cc(C)ccc2C(C)C)c1 [TCMDC-123706]	60.12	20.94	
Cl.O=C(CNC1CCCCC1)c1ccc(O)c(O)c1 [TCMDC-123961]	31.52	68.95	
CC1Cc2ccccc2N1S(=O)(=O)c1cc(OCC(F)(F)F)ccc1OCC(F)(F)F (stereo not drawn) [TCMDC-124044]	52.34	21.81	
CCOC(=O)c1cn(CC)c2cc(N3CCCCCC3)c(F)cc2c1=O [TCMDC-124160]	101.92	113.32	
c1ccc(-c2csc(Nc3nc4cc5c(cc4s3)OCO5)n2)nc1 [TCMDC-124550]	83.78	59.07	
Cc1ccc(CN2CCC(C(=O)Nc3ccc(-c4cc5ccccc5[nH]4)cc3)CC2)o1 [TCMDC-124634]	35.55	65.49	
COc1cc(OC)cc(C(=O)Nc2ccc(Nc3nc(C)cc(N(C)C)n3)cc2)c1 [TCMDC-124726]	52.96	25.99	
Cc1ccc(-c2noc(COc3ccccc3C(=O)NC3CCCC3)n2)cc1 [TCMDC-124748]	70.37	89.43	
Cc1cc(C(=O)NC2CCN(CC3(c4ccc(Cl)cc4)CCC3)CC2)on1 [TCMDC-124833]	70.28	68.63	
O=C(CSc1nn(-c2ccccc2)c(=S)s1)c1c[nH]c2ccccc12 [TCMDC-124894]	61.81	32.04	
COc1cc(CN2CCN(c3ccnc(N(C)C4CCN(C)CC4)n3)CC2)cc(Cl)c1O [TCMDC-125096]	51.09	24.20	
CCN(CC)CCCC(C)Nc1c2ccc(Cl)cc2nc2ccc(OC)cc12.Cl.O (stereo not drawn) [TCMDC-125480]	33.29	58.69	
Br.CCc1ccccc1OCCCON1C(=N)N=C(N)NC1(C)C [TCMDC-131305]	58.24	46.89	
CCSc1ccccc1COc1c(C)nc(N)nc1N.Cl [TCMDC-131359]	61.82	19.87	
N=C1NC(=N)N(OCCCCCCON2C(=N)NC(=N)NC2C=Cc2ccccc2)C(C=Cc2ccccc2)N1 (stereo not drawn) [TCMDC-131602]	52.81	32.33	
Br.CC1(C)N=C(N)N=C(N)N1OCCc1ccc2ccccc2c1 [TCMDC-131755]	66.00	52.02	

Compound	% inhibition, Replicate A [%]	% inhibition, Replicate B [%]	IC50 [µM]
CC(C)c1cccc(C(C)C)c1NC(=O)NNC(=O)c1ccc(CCN2CCC(c3nc(COCC(F)(F)F)c(-c4ccc(F)cc4)o3)CC2)cc1 [TCMDC-131908]	61.66	23.60	
CN1CCC(C(=O)Nc2ccc(-c3cccc(-c4nc5cc(F)ccc5[nH]4)c3)cc2)CC1 [TCMDC-132180]	7.14	53.61	
CS(=O)(=O)NCCCNCc1cccc(-c2ccc(-c3nc4ccccc4[nH]3)s2)c1.O=C(O)C(F)(F)F [TCMDC-133088]	41.67	56.04	
Cc1cccc2nc(-c3ccc(-c4ccc(NC(=O)NCc5cccc(F)c5)cc4)cc3)[nH]c12 [TCMDC-133294]	56.07	54.12	
COc1ccc(Nc2nc(C)cc(NC3CCCC3)n2)cc1 [TCMDC-133465]	51.72	31.38	
Cc1cc(Nc2cccc(C#N)c2)nc(Nc2ccccc2C)n1 [TCMDC-133471]	56.49	36.05	
O=C(Nc1cccc(C(F)(F)F)c1)c1cccc(S(=O)(=O)NCC2CCCN2CC2CCCCC2)c1.O=C(O)C(F)(F)F (stereo not drawn) [TCMDC-133687]	11.95	57.11	
Cc1cccc2nc(-c3ccc(-c4cccc(CN5CCCC(N)C5)c4)s3)[nH]c12.O=C(O)C(F)(F)F (stereo not drawn) [TCMDC-133874]	50.71	12.43	
COc1ccc(-c2cc(C(=O)Nc3ccc4[nH]c(-c5ccccc5)nc4c3)[nH]n2)cc1.O=C(O)C(F)(F)F [TCMDC-134399]	46.43	56.04	
COc1ccccc1-c1cccc(CNC2CCN(CC3Cn4c(=O)ccc5ccc(F)c3c54)CC2)c1.O=C(O)C(F)(F)F (stereo not drawn) [TCMDC-134411]	72.27	57.51	
COc1ccc2nccc(N3CCC(NCCNCc4ccc5c(n4)NC(=O)CS5)C3)c2n1.Cl (stereo not drawn) [TCMDC-134649]	18.73	51.52	
O=C(NCc1cccs1)[C@H](Cc1ccccc1)Nc1ccnc(NCC2CCCCC2)n1.O=C(O)C(F)(F)F [TCMDC-134708]	21.89	53.00	
COc1cc(OC)cc(-c2nn(-c3ccc([N+](=O)[O-])cc3C#N)c(=S)n2CC2CCCO2)c1 (stereo not drawn) [TCMDC-134716]	44.85	53.94	5.46
N#Cc1cc([N+](=O)[O-])ccc1-n1nc(-c2cccc(Cl)c2)n(Cc2ccco2)c1=S [TCMDC-134717]	64.43	77.59	
COc1ccccc1CCNc1nc(C)cc(N[C@@H](Cc2ccccc2)C(=O)Nc2ccccc2)n1.O=C(O)C(F)(F)F [TCMDC-134804]	57.50	38.80	
CN(Cc1ccccc1)C1CCN(c2cc(NC(=O)c3cccc(F)c3)ccn2)CC1.O=C(O)C(F)(F)F [TCMDC-135000]	52.34	57.11	
Nc1ncnc2cc(-c3cccc(S(N)(=O)=O)c3)sc12 [TCMDC-135294]	103.63	97.06	
Cc1[nH]c(C)c(-c2cccc(-c3ccc(OC(F)(F)F)cc3)c2)c(=O)c1Br [TCMDC-135303]	52.85	65.81	
COc1ccc2nc(-c3cc(-c4ccc(NC(=O)CN5CCOCC5)cc4)cnc3N)[nH]c2c1 [TCMDC-135373]	111.93	79.71	

Compound	% inhibition, Replicate A [%]	% inhibition, Replicate B [%]	IC50 [µM]
COc1cc(C(=O)N2CCOC(CCN3CCC(c4ccc(Cl)cc4)CC3)(c3ccc(Cl)c(Cl)c3)C2)cc(OC)c1OC (stereo not drawn) [TCMDC-135566]	63.32	35.61	
CS(=O)(=O)Cc1ccc(Nc2nccc(-c3c(-c4cccc(NC(=O)c5c(F)cccc5F)c4)nn4ccccc34)n2)cc1 [TCMDC-135669]	21.89	53.61	
Cl.O=C(CC1CCCC1)N(CC1CCN(Cc2ccc(C(F)(F)F)cc2)CC1)c1ccc(N2CCOCC2)c(F)c1 [TCMDC-135855]	65.53	32.88	
O=C(Nc1ccc(Cl)cc1)N(CC1CC2CCC(C1)N2Cc1ccc(C(F)(F)F)cc1)c1ccc(N2CCOCC2)c(F)c1 (stereo not drawn) [TCMDC-135859]	55.58	25.24	
O=C(/C=C/c1ccc(Cl)c(Cl)c1)NCCCCCN1CCCN(C(=O)Nc2cc(Cl)nc(Cl)c2)CC1 [TCMDC-135888]	61.66	48.73	
Cc1nc2ccc(-c3ccc(OC(F)(F)F)cc3)cc2c(O)c1C#N [TCMDC-136129]	117.05	93.07	
Cc1[nH]cc(Br)c(=O)c1-c1ccc(Oc2ccc(OC(F)(F)F)cc2)cc1 [TCMDC-136197]	35.07	51.32	
CCc1ccc(NC(=O)c2ccc(CN3CCCN(CC4CCCCC4)CC3)cc2)cc1.O=C(O)C(F)(F)F [TCMDC-136437]	48.61	52.92	
CC(C)COc1ccc(Cl)cc1Cc1ccc(-c2nc3cnc4ccccc4c3[nH]2)o1 [TCMDC-136650]	61.46	37.55	
Cc1cnc(C(=O)Nc2cccc(-c3ccc(-c4nc5cc(C(F)(F)F)ccc5[nH]4)s3)c2)cn1 [TCMDC-137028]	1.65	57.27	
Cn1ncc2ccc(Nc3nccc(-c4ccc5c(c4)c(N)nn5C)n3)cc21 [TCMDC-137049]	55.92	51.61	
Cc1nc2ccccc2c(O)c1-c1ccc(Cl)cc1 [TCMDC-137172]	27.10	52.76	
Cc1nc2nc(N)nc(N)c2c(C)c1Cc1ccccc1I.Cl [TCMDC-137243]	8.94	52.96	
CCc1cc2c3c(N)nc(N)nc3ccc2n1C(CC)CC [TCMDC-137309]	48.79	56.84	
CC(C)n1c(C(C)(C)C)cc2c3c(N)nc(N)nc3ccc21 [TCMDC-137311]	95.58	90.85	0.634
CNCCN(C)C(=O)Oc1c(Cl)c(C)nc(C)c1-c1ccc(Oc2ccc(OC(F)(F)F)cc2)cc1.Cl [TCMDC-137384]	31.42	56.87	
Cc1[nH]c(C)c(-c2ccc(Oc3cccc(Cl)c3)cc2)c(=O)c1Cl [TCMDC-137395]	115.83	119.38	
Cc1[nH]c(C)c(-c2ccc(S(=O)(=O)c3ccc(Cl)cc3)cc2)c(=O)c1Cl [TCMDC-137412]	78.54	115.81	
